Patent publication US8912234B2, “Composition containing resveratrol and/or derivatives thereof and plant oil, process for producing said composition, nutraceutical and/or pharmaceutical product, and method for enhancing the potential of resveratrol” (UNIAO Brasileria de Educacao e Assistencia—Mantenedora da …, priority 2009, dated 2014)

Tests used:
[1] = system: edematogenic response caused by CFA; assay: Paw edema of chronic inflammation induced by CFA in mice; type: in vivo, male Swiss mice; settings: 100 mg/kg oral, 1x a day for 7 days, starting 1 week after CFA; mice (FIG. 9)
Description: (§1) To perform the experiments, male Wistar rats (180 to 200 g) or male Swiss mice (25 to 30 g) were used, coming from the animal house of the Federal University of Pelotas (UFPEL; Pelotas, RS). We used 5 to 8 animals per group. The animals were kept in Room 108, located in Block E, of the Vivarium of Building 12, of the PUCRS, on ventilated shelves outfitted with incoming and outgoing air filters (brand Alesco), with controlled temperature (22±1° C.) and light/dark cycle of 12 h (lights turned on at 7:00 a.m.; lights turned off at 7:00 p.m.). Within the shelves, the animals were kept in cages suitable for rodents, filled with pine shavings (changed three times a week). The animals received pelletized ration (brand Nuvilab) and filtered water (filter brand Jojaco) ad libitum. The experiments were conducted in the Applied Pharmacology Laboratory I, located in Block C, Building 12, of the PUCRS. During the experimental procedures, the laboratory temperature was maintained at 22±1° C. […] In this series of experiments, the depressive behavior associated with chronic inflammation in mice was evaluated. […] The increase in volume was measured by plethysmometer, two weeks after the application of the CFA. The difference between the volume of the right and left paws was quantified (in ml) and taken as an indicator of edema. […] The time of immobility was measured for a period of 6 min. […]

[2] = system: edema of the paw caused by carrageenan; assay: Model of acute inflammation by carrageenan in the paw of rats; type: in vivo, male Wistar rats; settings: 100 mg/kg oral; for inhibition of the edema caused by carrageenan: therapeutic, 120 min after carrageenan, rats (FIG. 5)
[3] = system: depressive behavior associated with the chronic inflammation caused by CFA; assay: Depressive behavior associated with chronic inflammation in mice (tail suspension, time of immobility); type: in vivo, male Swiss mice; settings: 100 mg/kg oral, 1x a day for 7 days, starting 1 week after CFA; immobility over 6 min; mice (FIG. 9)
Description: as §1

[4] = system: edema caused by CFA; assay: Model of polyarthritis induced by CFA in rats; type: in vivo, male Wistar rats; settings: 100 mg/kg oral, twice a day for 8 days, from day 14 to 21 after CFA; rats (FIG. 7)

Structure (SMILES): Oc1ccc(C=Cc2cc(O)cc(O)c2)cc1 [resveratrol, 3,5,4′-trihydroxystilbene]
- percentage of reduction of the edematogenic response caused by CFA [1]: 42±4%
- inhibition of the edema of the paw caused by carrageenan ([2]; preventive, 30 min prior to carrageenan, vs saline control, rats (FIG. 4)): 31±7%
- inhibition of the edema caused by carrageenan ([2]; at 180 min): 35±8%
- inhibition of the edema caused by carrageenan ([2]; at 240 min): 45±9%
- depressive behavior (time of immobility) [3]: expressively reduced
- inhibition of the formation of edema caused by CFA [4]: 17±5%
